Measurements: patent US11512079B2, “Heterocycle substituted pyridine derivative antifungal agents” (Amplyx Pharmaceuticals, Inc., priority 2017, dated 2022)
≈ marks a conversion by molar mass, not a printed value.

Assays:
Assay type in all cases: cell-based
[1] = system: Aspergillus fumigatus MYA3626; assay: In vitro antifungal assay (Example IX), microdilution broth, MEC; conditions: minimum effective concentration (shortening of hyphae), 35° C., 40-48 h, RPMI1640
In short: (§1)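 Read-out is the minimum effective concentration: lowest compound level causing shorter hyphae than in DMSO controls, echinocandin-style. Broth microdilution used conidia or spores harvested from agar plates, cleared of mycelium and clumps, at a final 1-2×10^4 spores/mL in RPMI1640.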

[2] = system: Rhizomucor pusillus 46342; assay: as above; conditions: minimum effective concentration (shortening of hyphae), 35° C., 40-48 h, RPMI1640
In short: as §1

Cryptococcus gattii = assay: In vitro antifungal assay (Example IX), microdilution broth, MIC; conditions: minimum inhibitory concentration (≥50% inhibition), 35° C., 72 h (Cryptococcus), RPMI1640
Procedure: Preparation of Fungal Suspension. C. albicans 90028 and C. neoformans H99 strains were streaked from frozen stocks at −80° C. onto Sabouraud Dextrose Agar (SDA) plates. These were allowed to grow for 24 h (C. albicans) and 48 h (C. neoformans) at 35° C. before using them in the assay. 5-6 individual colonies were picked and diluted into sterile water to obtain a fungal suspension. The cell density of the suspension was determined and the culture diluted with RPMI1640 medium to obtain a fungal suspension of 2.5×10^3 cells/mL. The suspension was used in the MIC measurement as described below.
Preparation of Compound Stocks and Intermediate Dilutions: The compounds were weighed and DMSO was added to prepare a 10 mg/mL stock. The solutions were mixed by vortexing and sonication at 37° C. for 5-10 mins. The resulting solutions were sterile filtered using a PTFE filter, and aliquoted (12 μL or as needed) and stored at −20° C. Intermediate compound dilutions were prepared in sterile polypropylene tubes in 100% DMSO. The compound stock solution was first diluted in DMSO to obtain a concentration of […] to 0.19 μg/mL.
MIC/MEC Measurement: 99 μL 1 of the fungal suspension in RPMI1640 prepared as above was added to each well of a 96-well round bottom assay plate. 1 μL of the intermediate compound dilutions (200-0.19 μg/mL) were added to wells of the plate. This led to a 100-fold dilution of the intermediate dilutions resulting in a final compound concentration of 2-0.0019 μg/mL in the plate. 1 μL of DMSO was added to “No drug” control wells. The solutions were mixed by shaking on a plate shaker for 10 mins and plates incubated at 35° C. for 40-48 h (C. albicans, A. fumigatus, R. pusillus) and 72 h (Cryptococcus). […] This was validated by thorough mixing and reading at 600 nm on a microplate reader. The minimum concentration that led to shortening of hyphae as compared to hyphal growth in DMSO control wells was determined as the minimum effective concentration (MEC) for A. fumigatus and R. pusillus (as read for echinocandins). The use of the MIC and MEC endpoints against yeasts and molds, respectively has been described by Pfaller M A, Duncanson F, Messer S A, Moet G J, Jones R N, Castanheira M. Antimicrob Agents Chemother. 2011. 55(11):5155-8. In vitro activity of a novel broad-spectrum antifungal, E1210, tested against Aspergillus spp. determined by CLSI and EUCAST broth microdilution methods. Results are shown in Table 2, and the letters indicate the following ranges in μg/mL: […]

[3] = system: Cryptococcus neoformans H99; assay: as above; conditions: minimum inhibitory concentration (≥50% inhibition), 35° C., 72 h, RPMI1640
In short: (§2)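 Yeast inocula (2.5×10^3 cells/mL, RPMI1640) were exposed to twofold compound series reaching 2-0.0019 μg/mL final, per CLSI yeast methodology. Incubation at 35° C. ran 40-48 h for Candida albicans 90028 and 72 h for Cryptococcus neoformans H99. MIC endpoints were confirmed by absorbance at 600 nm.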

Candida albicans 90028 = assay: as above; conditions: minimum inhibitory concentration (≥50% inhibition), 35° C., 40-48 h, RPMI1640
In short: as §2

MIC (Cryptococcus gattii) [µg/mL]	MIC [3] [µg/mL]	MIC (Candida albicans 90028) [µg/mL]	Compound	minimal effective concentration [1] [µg/mL]	minimal effective concentration [2] [µg/mL]
0.01 to 0.1 (≈ 0.0278 to 0.278 µM)	0.01 to 0.1 (≈ 0.0278 to 0.278 µM)	0.01 to 0.1 (≈ 0.0278 to 0.278 µM)	Nc1ncccc1-c1cc(Cc2ccc(OCc3ccccn3)nc2)no1 [compound 35, 3-(3-((6-(pyridin-2-ylmethoxy)pyridin-3-yl)methyl)isoxazol-5-yl)pyridin-2-amine]	0.01 to 0.1	> 1
0.01 to 0.1 (≈ 0.0278 to 0.278 µM)	0.01 to 0.1 (≈ 0.0278 to 0.278 µM)	0.01 to 0.1 (≈ 0.0278 to 0.278 µM)	Nc1ncccc1-c1cc(Cc2ccc(Cc3cccc(F)c3)cc2)no1 [compound 208, 3-(3-(4-(3-fluorobenzyl)benzyl)isoxazol-5-yl)pyridin-2-amine]	0.01 to 0.1	0.1 to 1
0.01 to 0.1 (≈ 0.0279 to 0.279 µM)	0.01 to 0.1 (≈ 0.0279 to 0.279 µM)	≤ 0.01	Nc1ncccc1-c1cc(Cc2ccc(OCc3ccccn3)cc2)no1 [Example 140, 3-(3-(4-(pyridin-2-ylmethoxy)benzyl)isoxazol-5-yl)pyridin-2-amine]	0.01 to 0.1	0.1 to 1
> 1	0.1 to 1 (≈ 0.289 to 2.89 µM)	0.1 to 1 (≈ 0.289 to 2.89 µM)	Nc1ncccc1-c1cc(Cc2ccc(-c3ccc(F)cc3)nc2)no1 [compound 205, 3-(3-((6-(4-fluorophenyl)pyridin-3-yl)methyl)isoxazol-5-yl)pyridin-2-amine]	> 1	0.1 to 1
0.1 to 1 (≈ 0.281 to 2.81 µM)	0.1 to 1 (≈ 0.281 to 2.81 µM)	0.01 to 0.1 (≈ 0.0281 to 0.281 µM)	Nc1ncccc1-c1cc(Cc2ccc(CCc3ccccc3)cc2)no1 [compound 18, 3-(3-(4-phenethylbenzyl)isoxazol-5-yl)pyridin-2-amine]	0.01 to 0.1	0.1 to 1
0.1 to 1 (≈ 0.252 to 2.52 µM)	0.1 to 1 (≈ 0.252 to 2.52 µM)	0.1 to 1 (≈ 0.252 to 2.52 µM)	Nc1ncccc1-c1cc(Cc2ccc(Nc3ccc(F)c(F)c3F)nc2)no1 [compound 245, 5-((5-(2-aminopyridin-3-yl)isoxazol-3-yl)methyl)-N-(2,3,4-trifluorophenyl)pyridin-2-amine]	0.1 to 1	> 1
0.01 to 0.1 (≈ 0.0274 to 0.274 µM)	0.01 to 0.1 (≈ 0.0274 to 0.274 µM)	0.01 to 0.1 (≈ 0.0274 to 0.274 µM)	Nc1ncccc1-c1cc(Cc2ccc(OCc3nccs3)nc2)no1 [compound 42, 3-(3-((6-(thiazol-2-ylmethoxy)pyridin-3-yl)methyl)isoxazol-5-yl)pyridin-2-amine]	0.01 to 0.1	0.1 to 1
≤ 0.01	≤ 0.01	0.01 to 0.1 (≈ 0.0264 to 0.264 µM)	Nc1ncccc1-c1cc(Cc2ccc(Oc3cccc(Cl)n3)cc2)no1 [compound 234, 3-(3-(4-((6-chloropyridin-2-yl)oxy)benzyl)isoxazol-5-yl)pyridin-2-amine]	0.01 to 0.1	0.1 to 1
0.01 to 0.1 (≈ 0.0267 to 0.267 µM)	0.1 to 1 (≈ 0.267 to 2.67 µM)	0.01 to 0.1 (≈ 0.0267 to 0.267 µM)	Nc1ncccc1-c1cc(Cc2ccc(SCc3ccccc3)nc2)no1 [compound 61, 3-(3-((6-(benzylthio)pyridin-3-yl)methyl)isoxazol-5-yl)pyridin-2-amine]	0.01 to 0.1	> 1
0.1 to 1 (≈ 0.286 to 2.86 µM)	0.1 to 1 (≈ 0.286 to 2.86 µM)	0.1 to 1 (≈ 0.286 to 2.86 µM)	Nc1ncccc1-c1cc(Cc2ccc(OCc3ncco3)nc2)no1 [compound 53, 3-(3-((6-(oxazol-2-ylmethoxy)pyridin-3-yl)methyl)isoxazol-5-yl)pyridin-2-amine]	0.1 to 1	0.1 to 1
> 1	0.1 to 1 (≈ 0.294 to 2.94 µM)	0.01 to 0.1 (≈ 0.0294 to 0.294 µM)	Nc1ncccc1-c1cc(Cc2cnc(OCC3CC3)c(F)c2)no1 [compound 247, 3-(3-((6-(cyclopropylmethoxy)-5-fluoropyridin-3-yl)methyl)isoxazol-5-yl)pyridin-2-amine]	0.01 to 0.1	
0.1 to 1 (≈ 0.254 to 2.54 µM)	0.1 to 1 (≈ 0.254 to 2.54 µM)	0.1 to 1 (≈ 0.254 to 2.54 µM)	Nc1ncccc1-c1cc(Cc2cnc(OCc3cccc(F)c3)c(F)c2)no1 [compound 251, 3-(3-((5-fluoro-6-((3-fluorobenzyl)oxy)pyridin-3-yl)methyl)isoxazol-5-yl)pyridin-2-amine]	0.01 to 0.1	
